Patent EP2776398B1, “SUBSTITUTED PYRAZOLYL-BASED UREA DERIVATIVES AS VANILLOID RECEPTOR LIGANDS” (Medifron DBT Inc., priority 2011, dated 2013)

Biological target: T1, vanilloid receptor 1 (VR1/TRPV1 receptor) (Homo sapiens, UniProt Q8NER1)
T1 construct: expressed in transfected cells; host or cells: CHO K1 cells (ECACC), stably transfected
Assay: Functional testing on vanilloid receptor 1: FLIPR Ca2+ influx assay against capsaicin (Cap) in transfected CHO K1 cells (pharmacological method II); as to Ki: 100 nM capsaicin
Format: cell-based
Design: key to (f) Ki (human being) [nM] Cap: agonist classification: AG = agonist
Conditions: human VR1 in CHO K1 cells; AG printed instead of a Ki
From the text: […]

T1 sequence (Q8NER1 whole entry): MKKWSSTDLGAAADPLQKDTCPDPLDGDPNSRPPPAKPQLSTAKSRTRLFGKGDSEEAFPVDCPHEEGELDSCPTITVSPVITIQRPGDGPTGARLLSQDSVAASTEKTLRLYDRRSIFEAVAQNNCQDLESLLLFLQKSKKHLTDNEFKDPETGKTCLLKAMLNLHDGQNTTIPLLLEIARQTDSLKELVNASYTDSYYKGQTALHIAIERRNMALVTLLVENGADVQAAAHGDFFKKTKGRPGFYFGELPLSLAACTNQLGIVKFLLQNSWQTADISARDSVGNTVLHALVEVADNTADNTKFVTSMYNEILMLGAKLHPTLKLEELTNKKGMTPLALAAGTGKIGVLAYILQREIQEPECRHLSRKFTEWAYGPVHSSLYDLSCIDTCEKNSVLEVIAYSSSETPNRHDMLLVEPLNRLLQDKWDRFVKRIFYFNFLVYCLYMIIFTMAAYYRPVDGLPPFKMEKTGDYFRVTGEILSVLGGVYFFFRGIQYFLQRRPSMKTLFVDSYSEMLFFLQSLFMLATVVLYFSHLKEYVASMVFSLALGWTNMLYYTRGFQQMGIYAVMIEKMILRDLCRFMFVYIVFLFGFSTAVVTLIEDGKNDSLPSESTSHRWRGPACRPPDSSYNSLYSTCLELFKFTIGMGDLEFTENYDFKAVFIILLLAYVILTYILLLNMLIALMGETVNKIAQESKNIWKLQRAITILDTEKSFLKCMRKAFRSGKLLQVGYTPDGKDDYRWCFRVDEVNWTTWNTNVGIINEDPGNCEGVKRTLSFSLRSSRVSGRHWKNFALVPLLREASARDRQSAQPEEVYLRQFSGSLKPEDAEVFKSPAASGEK

Structure (SMILES)	(f) Ki (human being) [nM] Cap: agonist classification
CC(C(=O)NCc1cc(C(C)(C)C)nn1-c1cccc(F)c1)c1ccc(CO)c(F)c1 (stereo not shown) [A37, N-[[5-tert-Butyl-2-(3-fluorophenyl)-2H-pyrazol-3-yl]-methyl]-2-[3-fluoro-4-(hydroxymethyl)-phenyl]-propionamide]	AG
CC(C(=O)NCc1cc(C(C)(C)C)nn1-c1ccc(F)c(F)c1)c1ccc(CO)c(F)c1 (stereo not shown) [A39, N-[[5-tert-Butyl-2-(3,4-difluoro-phenyl)-2H-pyrazol-3-yl]-methyl]-2-[3-fluoro-4-(hydroxymethyl)-phenyl]-propionamide]	AG
CC(C(=O)NCc1cc(C(C)(C)C)nn1-c1ccc(F)c(Cl)c1)c1ccc(CO)c(F)c1 (stereo not shown) [A41, N-[[5-tert-Butyl-2-(3-chloro-4-fluoro-phenyl)-2H-pyrazol-3-yl]-methyl]-2-[3-fluoro-4-(hydroxymethyl)-phenyl]-propionamide]	AG
CC(C(=O)NCc1cc(C(C)(C)C)nn1-c1cccc(C(F)(F)F)c1)c1ccc(CO)c(F)c1 (stereo not shown) [A47, N-[[5-tert-Butyl-2-[3-(trifluoromethyl)phenyl]-2H-pyrazol-3-yl]-methyl]-2-[3-fluoro-4-(hydroxymethyl)-phenyl]-propionamide]	AG
CC(C(=O)NCc1cc(C(F)(F)F)nn1-c1cccc(C(F)(F)F)c1)c1ccc(CO)c(F)c1 (stereo not shown) [A48, 2-[3-Fluoro-4-(hydroxymethyl)-phenyl]-N-[[5-(trifluoromethyl)-2-[3-(trifluoromethyl)phenyl]-2H-pyrazol-3-yl]-methyl]-propionamide]	AG

Results, then the compound that gave them:

(f) Ki (human being) [nM] Cap: agonist classification	Structure (SMILES)
AG	COc1cc(C(C)C(=O)NCc2cc(C(C)(C)C)nn2-c2cccc(Cl)c2)ccc1CO (stereo not shown) [A49, N-[[5-tert-Butyl-2-(3-chlorophenyl)-2H-pyrazol-3-yl]-methyl]-2-[4-(hydroxymethyl)-3-methoxy-phenyl]-propionamide]
AG	CC(C(=O)NCc1cc(C(C)(C)C)nn1-c1cccc(Cl)c1)c1ccc(CO)c(Cl)c1 (stereo not shown) [A51, N-[[5-tert-Butyl-2-(3-chlorophenyl)-2H-pyrazol-3-yl]-methyl]-2-[3-chloro-4-(hydroxymethyl)-phenyl]-propionamide]

Same assay, conditions: read-out: (f) Ki (human being) [nM] Cap

Structure (SMILES)	Ki [nM]
C[C@@H](C(=O)NCc1cc(C(F)(F)F)nn1-c1cccc(Cl)c1)c1ccc(CO)c(F)c1 [A35, (2R)-N-[[2-(3-Chlorophenyl)-5-(trifluoromethyl)-2H-pyrazol-3-yl]-methyl]-2-[3-fluoro-4-(hydroxymethyl)-phenyl]-propionamide]	1
CC(C(=O)NCc1cc(C(F)(F)F)nn1-c1ccc(F)c(F)c1)c1ccc(CO)c(F)c1 (stereo not shown) [A40, N-[[2-(3,4-Difluoro-phenyl)-5-(trifluoromethyl)-2H-pyrazol-3-yl]-methyl]-2-[3-fluoro-4-(hydroxymethyl)-phenyl]-propionamide]	27
CC(C(=O)NCc1cc(C(F)(F)F)nn1-c1ccc(F)c(Cl)c1)c1ccc(CO)c(F)c1 (stereo not shown) [A42, N-[[2-(3-Chloro-4-fluoro-phenyl)-5-(trifluoromethyl)-2H-pyrazol-3-yl]-methyl]-2-[3-fluoro-4-(hydroxymethyl)-phenyl]-propionamide]	3
CC(C(=O)NCc1cc(C(C)(C)C)nn1-c1ccc(F)cc1)c1ccc(CO)c(F)c1 (stereo not shown) [A45, N-[[5-tert-Butyl-2-(4-fluorophenyl)-2H-pyrazol-3-yl]-methyl]-2-[3-fluoro-4-(hydroxymethyl)-phenyl]-propionamide]	1
CC(C(=O)NCc1cc(C(F)(F)F)nn1-c1ccc(F)cc1)c1ccc(CO)c(F)c1 (stereo not shown) [A46, 2-[3-Fluoro-4-(hydroxymethyl)-phenyl]-N-[[2-(4-fluorophenyl)-5-(trifluoromethyl)-2H-pyrazol-3-yl]-methyl]-propionamide]	46
COc1cc(C(C)C(=O)NCc2cc(C(F)(F)F)nn2-c2cccc(Cl)c2)ccc1CO (stereo not shown) [A50, N-[[2-(3-Chlorophenyl)-5-(trifluoromethyl)-2H-pyrazol-3-yl]-methyl]-2-[4-(hydroxymethyl)-3-methoxy-phenyl]-propionamide]	1
CC(C(=O)NCc1cc(C(F)(F)F)nn1-c1cccc(Cl)c1)c1cc(F)c(CO)c(F)c1 (stereo not shown) [A52, N-[[2-(3-Chlorophenyl)-5-(trifluoromethyl)-2H-pyrazol-3-yl]-methyl]-2-[3,5-difluoro-4-(hydroxymethyl)-phenyl]-propionamide]	140
O=C(NCc1cc(C2CC2)nn1-c1cccc(Cl)c1)Nc1ccc(CO)c(F)c1 [A53, 1-[[2-(3-Chlorophenyl)-5-cyclopropyl-2H-pyrazol-3-yl]-methyl]-3-[3-fluoro-4-(hydroxymethyl)-phenyl]-urea]	18
CC(C)(C)c1cc(CNC(=O)Nc2ccc(CO)c(F)c2)n(-c2cccc(Cl)c2)n1 [A55, 1-[[5-tert-Butyl-2-(3-chlorophenyl)-2H-pyrazol-3-yl]-methyl]-3-[3-fluoro-4-(hydroxymethyl)-phenyl]-urea]	3
Cc1cccc(-n2nc(C(C)(C)C)cc2CNC(=O)Nc2ccc(CO)c(F)c2)c1 [A56, 1-[[5-tert-Butyl-2-(m-tolyl)-2H-pyrazol-3-yl]-methyl]-3-[3-fluoro-4-(hydroxymethyl)-phenyl]-urea]	2
CC(C)(C)c1cc(CNC(=O)Nc2ccc(CO)c(F)c2)n(-c2ccc(F)c(F)c2)n1 [A57, 1-[[5-tert-Butyl-2-(3,4-difluoro-phenyl)-2H-pyrazol-3-yl]-methyl]-3-[3-fluoro-4-(hydroxymethyl)-phenyl]-urea]	2
O=C(NCc1cc(C(F)(F)F)nn1-c1ccccc1)Nc1ccc(CO)c(F)c1 [A58, 1-[3-Fluoro-4-(hydroxymethyl)-phenyl]-3-[[2-phenyl-5-(trifluoromethyl)-2H-pyrazol-3-yl]-methyl]-urea]	6
O=C(NCc1cc(C(F)(F)F)nn1-c1cccc(Cl)c1)Nc1ccc(CO)c(F)c1 [A59, 1-[[2-(3-Chlorophenyl)-5-(trifluoromethyl)-2H-pyrazol-3-yl]-methyl]-3-[3-fluoro-4-(hydroxymethyl)-phenyl]-urea]	7
O=C(NCc1cc(C(F)(F)F)nn1-c1cccc(F)c1)Nc1ccc(CO)c(F)c1 [A62, 1-[3-Fluoro-4-(hydroxymethyl)-phenyl]-3-[[2-(3-fluorophenyl)-5-(trifluoromethyl)-2H-pyrazol-3-yl]-methyl]-urea]	30
O=C(NCc1cc(C(F)(F)F)nn1-c1ccc(F)c(F)c1)Nc1ccc(CO)c(F)c1 [A64, 1-[[2-(3,4-Difluoro-phenyl)-5-(trifluoromethyl)-2H-pyrazol-3-yl]-methyl]-3-[3-fluoro-4-(hydroxymethyl)-phenyl]-urea]	26
COc1cccc(-n2nc(C(F)(F)F)cc2CNC(=O)Nc2ccc(CO)c(F)c2)c1 [A67, 1-[3-Fluoro-4-(hydroxymethyl)-phenyl]-3-[[2-(3-methoxyphenyl)-5-(trifluoromethyl)-2H-pyrazol-3-yl]-methyl]-urea]	43
Cc1ccccc1-n1nc(C(F)(F)F)cc1CNC(=O)Nc1ccc(CO)c(F)c1 [A69, 1-[3-Fluoro-4-(hydroxymethyl)-phenyl]-3-[[2-(o-tolyl)-5-(trifluoromethyl)-2H-pyrazol-3-yl]-methyl]-urea]	45

Continued, values first:

Ki [nM]	Structure (SMILES)
11	CC(C(=O)NCc1cc(C(F)(F)F)nn1-c1cccc(F)c1)c1ccc(CO)c(F)c1 (stereo not shown) [A38, 2-[3-Fluoro-4-(hydroxymethyl)-phenyl]-N-[[2-(3-fluorophenyl)-5-(trifluoromethyl)-2H-pyrazol-3-yl]-methyl]-propionamide]
21	COc1cccc(-n2nc(C(F)(F)F)cc2CNC(=O)C(C)c2ccc(CO)c(F)c2)c1 (stereo not shown) [A43, 2-[3-Fluoro-4-(hydroxymethyl)-phenyl]-N-[[2-(3-methoxyphenyl)-5-(trifluoromethyl)-2H-pyrazol-3-yl]-methyl]-propionamide]
0.2	CC(C)c1cccc(-n2nc(C(F)(F)F)cc2CNC(=O)C(C)c2ccc(CO)c(F)c2)c1 (stereo not shown) [A44, 2-[3-Fluoro-4-(hydroxymethyl)-phenyl]-N-[[2-(3-isopropyl-phenyl)-5-(trifluoromethyl)-2H-pyrazol-3-yl]-methyl]-propionamide]
6	CC(C)(C)c1cc(CNC(=O)Nc2ccc(CO)c(F)c2)n(-c2cccc(F)c2)n1 [A54, 1-[[5-tert-Butyl-2-(3-fluorophenyl)-2H-pyrazol-3-yl]-methyl]-3-[3-fluoro-4-(hydroxymethyl)-phenyl]-urea]
10	O=C(NCc1cc(C(F)(F)F)nn1-c1ccc(Cl)cc1)Nc1ccc(CO)c(F)c1 [A60, 1-[[2-(4-Chlorophenyl)-5-(trifluoromethyl)-2H-pyrazol-3-yl]-methyl]-3-[3-fluoro-4-(hydroxymethyl)-phenyl]-urea]
26	O=C(NCc1cc(C(F)(F)F)nn1-c1ccccc1F)Nc1ccc(CO)c(F)c1 [A61, 1-[3-Fluoro-4-(hydroxymethyl)-phenyl]-3-[[2-(2-fluorophenyl)-5-(trifluoromethyl)-2H-pyrazol-3-yl]-methyl]-urea]
9	O=C(NCc1cc(C(F)(F)F)nn1-c1ccc(F)cc1)Nc1ccc(CO)c(F)c1 [A63, 1-[3-Fluoro-4-(hydroxymethyl)-phenyl]-3-[[2-(4-fluorophenyl)-5-(trifluoromethyl)-2H-pyrazol-3-yl]-methyl]-urea]
6	O=C(NCc1cc(C(F)(F)F)nn1-c1ccc(F)c(Cl)c1)Nc1ccc(CO)c(F)c1 [A65, 1-[[2-(3-Chloro-4-fluoro-phenyl)-5-(trifluoromethyl)-2H-pyrazol-3-yl]-methyl]-3-[3-fluoro-4-(hydroxymethyl)-phenyl]-urea]
9	O=C(NCc1cc(C(F)(F)F)nn1-c1cc(F)cc(F)c1)Nc1ccc(CO)c(F)c1 [A66, 1-[[2-(3,5-Difluoro-phenyl)-5-(trifluoromethyl)-2H-pyrazol-3-yl]-methyl]-3-[3-fluoro-4-(hydroxymethyl)-phenyl]-urea]
13	COc1ccc(-n2nc(C(F)(F)F)cc2CNC(=O)Nc2ccc(CO)c(F)c2)cc1 [A68, 1-[3-Fluoro-4-(hydroxymethyl)-phenyl]-3-[[2-(4-methoxyphenyl)-5-(trifluoromethyl)-2H-pyrazol-3-yl]-methyl]-urea]
